Here are results for one compound from ChEMBL document CHEMBL4346710, “Discovery of 7H-pyrrolo[2,3-d]pyrimidine derivatives as selective covalent irreversible inhibitors of interleukin-2-inducible T-cell kinase (Itk)” (Eur J Med Chem, 2019).

Assay [1] has as its system CCRF-CEM. Description: Induction of apoptosis in human CCRF-CEM cells assessed as downregulation of PARP at 1 to 5 uM incubated for 24 hrs by Western blot analysis. In kind it is functional, cell-based. For orientation: In western blotting, separated proteins are transferred to a membrane and probed.
The species named for assay [2] is Homo sapiens. Kind of assay: Selectivity ratio of IC50 for recombinant human N-terminal His6-tagged JAK3 (781 to end residues) expressed in baculovirus infected Sf21 cells to IC50 for recombinant human N-terminal His6-tagged ITK (352 to 617 residues) expressed in baculovirus infected Sf21 insect cells.
The species named for assay [3] is Homo sapiens. Description: Selectivity ratio of IC50 for recombinant human N-terminal GST-tagged EGFR kinase domain (696 to end residues) expressed in baculovirus infected Sf21 insect cells to IC50 for recombinant human N-terminal His6-tagged ITK (352 to 617 residues) expressed in baculovirus infected Sf21 insect cells.
Assay [4] deals with RAC-alpha serine/threonine-protein kinase (Homo sapiens) (UniProt P31749). Description: Inhibition of recombinant full length human His-tagged AKT1 expressed in baculovirus expression system assessed as enzyme residual activity at 0.4 uM using fluorophore-labeled serine/threonine-06 peptide as substrate incubated for 60 mins by Z'-LYTE assay relative to control.
The target in assay [5] is Ephrin type-A receptor 2 (Homo sapiens) (UniProt P29317). Kind of assay: Inhibition of recombinant human GST-tagged EPHA2 cytoplasmic domain (560 to 976 residues) expressed in baculovirus expression system assessed as enzyme residual activity at 0.4 uM using tyrosine-01 peptide as substrate incubated for 60 mins by Z'-Lyte assay relative to control.
Chain of Ephrin type-A receptor 2 (Homo sapiens) (P29317 whole entry, the tested form may be a part): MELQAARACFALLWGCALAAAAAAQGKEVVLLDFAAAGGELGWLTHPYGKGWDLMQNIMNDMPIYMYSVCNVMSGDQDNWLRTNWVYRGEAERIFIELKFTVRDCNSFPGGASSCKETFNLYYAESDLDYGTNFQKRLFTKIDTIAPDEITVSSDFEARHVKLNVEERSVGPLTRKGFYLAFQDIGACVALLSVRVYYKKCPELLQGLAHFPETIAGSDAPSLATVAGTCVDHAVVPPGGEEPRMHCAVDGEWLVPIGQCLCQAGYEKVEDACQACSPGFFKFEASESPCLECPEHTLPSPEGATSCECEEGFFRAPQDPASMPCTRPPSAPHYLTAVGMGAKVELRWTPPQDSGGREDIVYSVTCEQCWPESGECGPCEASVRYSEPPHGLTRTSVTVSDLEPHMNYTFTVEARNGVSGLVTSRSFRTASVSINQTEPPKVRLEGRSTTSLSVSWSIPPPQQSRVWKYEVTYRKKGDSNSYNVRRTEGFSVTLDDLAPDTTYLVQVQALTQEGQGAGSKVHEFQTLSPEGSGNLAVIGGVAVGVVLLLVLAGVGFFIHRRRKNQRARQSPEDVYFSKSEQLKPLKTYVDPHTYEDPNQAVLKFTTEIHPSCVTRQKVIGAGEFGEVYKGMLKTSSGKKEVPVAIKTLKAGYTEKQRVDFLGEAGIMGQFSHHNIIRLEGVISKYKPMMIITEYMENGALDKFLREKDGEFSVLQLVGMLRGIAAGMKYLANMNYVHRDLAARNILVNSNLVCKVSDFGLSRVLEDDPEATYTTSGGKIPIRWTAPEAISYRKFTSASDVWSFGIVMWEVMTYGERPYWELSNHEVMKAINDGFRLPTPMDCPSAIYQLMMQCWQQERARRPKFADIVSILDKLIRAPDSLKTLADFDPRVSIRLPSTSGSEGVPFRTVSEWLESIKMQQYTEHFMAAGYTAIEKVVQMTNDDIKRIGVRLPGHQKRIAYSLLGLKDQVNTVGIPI
For assay [6], the target named is Tyrosine-protein kinase ZAP-70 (Homo sapiens) (UniProt P43403). Kind of assay: Inhibition of recombinant full length human His-tagged ZAP70 cytoplasmic domain expressed in baculovirus expression system assessed as enzyme residual activity at 0.4 uM using fluorophore-labeled tyrosine-07 peptide as substrate incubated for 60 mins by Z'-LYTE assay relative to control.

Assay [7] deals with Casein kinase I isoform alpha (Homo sapiens) (UniProt P48729). Description: Inhibition of recombinant full length human GST-tagged CSNK1A1 expressed in baculovirus expression system assessed as enzyme residual activity at 0.4 uM using fluorophore-labeled serine/threonine-11 peptide as substrate incubated for 60 mins by Z'-LYTE assay relative to control.
Chain of Casein kinase I isoform alpha (Homo sapiens) (P48729 2-337 limits assumed): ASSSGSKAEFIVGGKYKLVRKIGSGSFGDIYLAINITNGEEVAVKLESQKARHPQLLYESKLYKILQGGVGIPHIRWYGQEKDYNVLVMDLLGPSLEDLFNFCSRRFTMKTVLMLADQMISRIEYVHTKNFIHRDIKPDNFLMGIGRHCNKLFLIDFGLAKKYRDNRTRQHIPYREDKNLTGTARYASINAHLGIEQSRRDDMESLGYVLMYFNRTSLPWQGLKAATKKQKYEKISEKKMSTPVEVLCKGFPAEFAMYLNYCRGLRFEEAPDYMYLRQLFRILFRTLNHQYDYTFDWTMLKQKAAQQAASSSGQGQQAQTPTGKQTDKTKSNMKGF
Assay [8] has as its target Protein kinase C theta type (Homo sapiens) (UniProt Q04759). Description: Inhibition of recombinant full length human His-tagged PRKCQ expressed in baculovirus expression system assessed as enzyme residual activity at 0.4 uM using fluorophore-labeled serine/threonine-7 peptide as substrate incubated for 60 mins by Z'-LYTE assay relative to control.
Assay [9] addresses cAMP-dependent protein kinase catalytic subunit alpha (Homo sapiens) (UniProt P17612). Kind of assay: Inhibition of recombinant human His-tagged PRKACA catalytic domain (1 to 351 residues) expressed in Escherichia coli assessed as enzyme residual activity at 0.4 uM using fluorophore-labeled serine/threonine-1 peptide as substrate incubated for 60 mins by Z'-LYTE assay relative to control.

Assay [10] deals with Epidermal growth factor receptor (Homo sapiens, UniProt P00533). Kind of assay: Inhibition of human recombinant GST-tagged EGFR cytoplasmic domain (668 to 1210 residues) expressed in baculovirus expression system assessed as enzyme residual activity at 0.4 uM using fluorophore-labeled tyrosine-4 peptide as substrate by Z'-Lyte assay relative to control.
Chain of Epidermal growth factor receptor (P00533 whole entry, the tested form may be a part): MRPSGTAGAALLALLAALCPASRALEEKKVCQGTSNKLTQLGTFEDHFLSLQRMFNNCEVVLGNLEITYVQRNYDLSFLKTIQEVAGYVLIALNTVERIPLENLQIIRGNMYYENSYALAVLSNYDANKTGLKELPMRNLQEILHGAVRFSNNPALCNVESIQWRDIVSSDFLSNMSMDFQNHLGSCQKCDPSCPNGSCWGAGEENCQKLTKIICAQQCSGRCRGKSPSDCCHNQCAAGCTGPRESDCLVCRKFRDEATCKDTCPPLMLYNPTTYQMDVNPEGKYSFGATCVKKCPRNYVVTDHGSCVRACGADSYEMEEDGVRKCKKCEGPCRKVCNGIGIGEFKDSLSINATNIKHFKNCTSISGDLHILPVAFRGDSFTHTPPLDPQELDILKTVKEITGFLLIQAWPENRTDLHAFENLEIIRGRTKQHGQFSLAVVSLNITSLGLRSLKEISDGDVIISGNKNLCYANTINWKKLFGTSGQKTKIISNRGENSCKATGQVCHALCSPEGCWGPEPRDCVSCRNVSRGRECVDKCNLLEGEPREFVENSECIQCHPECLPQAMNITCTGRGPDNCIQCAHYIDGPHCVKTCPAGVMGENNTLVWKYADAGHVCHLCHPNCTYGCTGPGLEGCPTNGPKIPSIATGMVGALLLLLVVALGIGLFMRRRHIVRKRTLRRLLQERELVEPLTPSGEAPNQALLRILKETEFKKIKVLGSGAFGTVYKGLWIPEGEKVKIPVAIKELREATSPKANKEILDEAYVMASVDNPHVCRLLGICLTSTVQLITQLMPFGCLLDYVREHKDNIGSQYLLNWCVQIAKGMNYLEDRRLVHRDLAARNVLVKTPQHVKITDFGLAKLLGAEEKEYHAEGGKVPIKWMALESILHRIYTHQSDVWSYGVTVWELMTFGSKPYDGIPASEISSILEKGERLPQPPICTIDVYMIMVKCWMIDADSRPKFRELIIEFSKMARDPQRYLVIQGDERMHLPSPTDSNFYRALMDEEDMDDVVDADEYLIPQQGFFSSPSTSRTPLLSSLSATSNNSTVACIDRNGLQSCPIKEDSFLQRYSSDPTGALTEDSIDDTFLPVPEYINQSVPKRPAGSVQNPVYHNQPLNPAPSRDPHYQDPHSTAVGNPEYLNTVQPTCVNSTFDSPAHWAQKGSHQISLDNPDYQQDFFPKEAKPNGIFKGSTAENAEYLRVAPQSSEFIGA
Assay [11] deals with Tyrosine-protein kinase BTK (Homo sapiens, UniProt Q06187). Description: Inhibition of recombinant full length human His-tagged BTK cytoplasmic domain expressed in baculovirus expression system assessed as enzyme residual activity at 0.4 uM using fluorophore-labeled tyrosine-1 peptide as substrate incubated for 60 mins by Z'-LYTE assay relative to control.
Chain of Tyrosine-protein kinase BTK (Q06187 whole entry, the tested form may be a part): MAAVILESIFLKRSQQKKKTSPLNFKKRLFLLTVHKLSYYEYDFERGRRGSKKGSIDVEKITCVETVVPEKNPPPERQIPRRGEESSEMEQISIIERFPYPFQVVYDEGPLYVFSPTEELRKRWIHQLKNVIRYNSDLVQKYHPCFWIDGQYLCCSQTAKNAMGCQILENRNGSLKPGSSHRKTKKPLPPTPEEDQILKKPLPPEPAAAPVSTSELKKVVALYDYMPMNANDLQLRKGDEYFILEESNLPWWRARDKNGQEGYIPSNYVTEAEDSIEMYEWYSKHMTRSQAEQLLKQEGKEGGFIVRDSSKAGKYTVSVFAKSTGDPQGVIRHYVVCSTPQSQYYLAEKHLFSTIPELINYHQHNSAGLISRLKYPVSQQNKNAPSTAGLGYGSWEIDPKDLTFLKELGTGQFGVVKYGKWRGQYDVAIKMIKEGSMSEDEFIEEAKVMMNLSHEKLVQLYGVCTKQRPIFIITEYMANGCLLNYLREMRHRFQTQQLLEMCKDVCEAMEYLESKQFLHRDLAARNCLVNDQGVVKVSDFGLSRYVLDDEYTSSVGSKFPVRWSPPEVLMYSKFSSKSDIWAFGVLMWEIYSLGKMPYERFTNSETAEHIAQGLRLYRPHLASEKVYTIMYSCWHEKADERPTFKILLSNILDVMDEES
In assay [12] the target is Glycogen synthase kinase-3 alpha (Homo sapiens) (UniProt P49840). Description: Inhibition of recombinant full length human His-tagged GSK3alpha expressed in baculovirus expression system assessed as enzyme residual activity at 0.4 uM using fluorophore-labeled serine/threonine-9 peptide as substrate incubated for 60 mins by Z'-LYTE assay relative to control.
Chain of Glycogen synthase kinase-3 alpha (Homo sapiens) (P49840 2-483 limits assumed): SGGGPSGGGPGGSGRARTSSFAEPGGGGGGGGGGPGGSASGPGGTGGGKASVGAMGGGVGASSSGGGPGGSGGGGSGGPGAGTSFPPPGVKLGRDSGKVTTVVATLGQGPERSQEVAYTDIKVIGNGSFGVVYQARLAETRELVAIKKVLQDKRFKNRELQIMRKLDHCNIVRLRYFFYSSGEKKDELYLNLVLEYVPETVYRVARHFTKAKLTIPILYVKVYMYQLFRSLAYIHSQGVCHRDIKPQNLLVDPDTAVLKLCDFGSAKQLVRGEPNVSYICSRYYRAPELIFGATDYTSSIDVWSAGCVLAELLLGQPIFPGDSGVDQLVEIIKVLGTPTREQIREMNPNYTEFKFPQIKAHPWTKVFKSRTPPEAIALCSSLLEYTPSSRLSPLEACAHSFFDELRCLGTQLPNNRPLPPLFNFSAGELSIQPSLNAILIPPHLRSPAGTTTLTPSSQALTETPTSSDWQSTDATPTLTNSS
Assay [13] has as its target Tyrosine-protein kinase ABL1 (Homo sapiens) (UniProt P00519). Kind of assay: Inhibition of recombinant full length human His-tagged ABL1 cytoplasmic domain expressed in baculovirus expression system assessed as enzyme residual activity at 0.4 uM using fluorophore-labeled tyrosine-2 peptide as substrate incubated for 60 mins by Z'-LYTE assay relative to control.
For assay [14], the target named is T1, Tyrosine-protein kinase Lck (Homo sapiens, UniProt P06239). Description: Inhibition of recombinant full length human C-terminal His-tagged LCK cytoplasmic domain expressed in baculovirus expression system assessed as enzyme residual activity at 0.4 uM using fluorophore-labeled tyrosine-2 peptide as substrate incubated for 60 mins by Z'-LYTE assay relative to control.

Assay [15] addresses T2, Tyrosine-protein kinase ITK/TSK (Homo sapiens) (UniProt Q08881).
T2 sequence (whole entry): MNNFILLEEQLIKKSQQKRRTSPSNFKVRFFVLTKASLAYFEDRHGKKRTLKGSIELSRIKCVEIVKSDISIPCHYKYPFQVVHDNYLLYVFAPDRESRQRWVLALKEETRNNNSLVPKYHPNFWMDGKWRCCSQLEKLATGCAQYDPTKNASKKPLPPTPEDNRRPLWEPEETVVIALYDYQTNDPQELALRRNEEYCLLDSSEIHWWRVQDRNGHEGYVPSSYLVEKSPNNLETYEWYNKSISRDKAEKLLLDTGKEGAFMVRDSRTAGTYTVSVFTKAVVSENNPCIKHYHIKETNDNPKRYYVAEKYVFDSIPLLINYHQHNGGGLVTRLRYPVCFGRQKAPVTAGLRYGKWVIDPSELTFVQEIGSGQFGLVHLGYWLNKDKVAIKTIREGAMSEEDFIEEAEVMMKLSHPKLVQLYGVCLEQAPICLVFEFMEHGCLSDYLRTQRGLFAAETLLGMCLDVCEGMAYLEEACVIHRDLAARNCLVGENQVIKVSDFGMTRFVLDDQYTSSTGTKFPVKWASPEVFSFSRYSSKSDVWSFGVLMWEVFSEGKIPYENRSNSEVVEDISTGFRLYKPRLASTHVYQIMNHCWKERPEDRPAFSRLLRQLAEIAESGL
Description: Inhibition of ITK in human Jurkat cells assessed as reduction in anti-CD3/CD28-stimulated PLCgamma1 phosphorylation at 0.1 to 10000 nM preincubated for 2 hrs followed by anti-CD3/CD28 beads addition and measured after 30 min by Western blot analysis. The format is cell-based.

Assay [16] deals with Jurkat. Description: Induction of apoptosis in human Jurkat cells assessed as downregulation of caspase3 at 1 to 20 uM incubated for 24 hrs by Western blot analysis. In kind it is functional, cell-based.
The test system of assay [17] is MOLT-4. Kind of assay: Induction of apoptosis in human MOLT4 cells assessed as downregulation of caspase3 at 1 to 20 uM incubated for 24 hrs by Western blot analysis. The format is functional, cell-based.
Assay [18] concerns MOLT-4. Description: Induction of apoptosis in human MOLT4 cells assessed as upregulation of cleaved PARP at 1 to 20 uM incubated for 24 hrs by Western blot analysis. The format is functional, cell-based.
In assay [19] the target is T1, Tyrosine-protein kinase Lck. Description: Inhibition of recombinant full length human C-terminal His-tagged LCK cytoplasmic domain expressed in baculovirus expression system using fluorophore-labeled tyrosine-2 peptide as substrate incubated for 60 mins by Z'-LYTE assay.
Target sequence in this assay (P06239 whole entry, the tested form may be a part): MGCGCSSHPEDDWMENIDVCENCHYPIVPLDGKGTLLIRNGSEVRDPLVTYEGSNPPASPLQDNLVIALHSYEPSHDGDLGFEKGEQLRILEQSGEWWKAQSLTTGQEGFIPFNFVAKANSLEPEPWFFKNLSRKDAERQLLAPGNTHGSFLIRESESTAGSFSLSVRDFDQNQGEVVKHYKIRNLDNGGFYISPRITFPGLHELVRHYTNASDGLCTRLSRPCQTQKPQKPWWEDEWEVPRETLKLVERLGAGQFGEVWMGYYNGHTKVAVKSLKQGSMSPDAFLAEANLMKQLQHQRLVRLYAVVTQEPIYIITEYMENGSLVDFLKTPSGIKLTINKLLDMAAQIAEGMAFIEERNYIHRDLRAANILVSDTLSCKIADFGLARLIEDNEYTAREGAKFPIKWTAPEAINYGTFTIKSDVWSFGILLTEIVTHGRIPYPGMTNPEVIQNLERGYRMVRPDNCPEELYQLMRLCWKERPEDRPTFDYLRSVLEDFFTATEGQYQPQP

Activity calls are given as the source filed them. The calls are words filed in the database; no cut-off is given here.

Chain of Protein kinase C theta type (Homo sapiens) (Q04759 whole entry, looked up, the tested form may be a part): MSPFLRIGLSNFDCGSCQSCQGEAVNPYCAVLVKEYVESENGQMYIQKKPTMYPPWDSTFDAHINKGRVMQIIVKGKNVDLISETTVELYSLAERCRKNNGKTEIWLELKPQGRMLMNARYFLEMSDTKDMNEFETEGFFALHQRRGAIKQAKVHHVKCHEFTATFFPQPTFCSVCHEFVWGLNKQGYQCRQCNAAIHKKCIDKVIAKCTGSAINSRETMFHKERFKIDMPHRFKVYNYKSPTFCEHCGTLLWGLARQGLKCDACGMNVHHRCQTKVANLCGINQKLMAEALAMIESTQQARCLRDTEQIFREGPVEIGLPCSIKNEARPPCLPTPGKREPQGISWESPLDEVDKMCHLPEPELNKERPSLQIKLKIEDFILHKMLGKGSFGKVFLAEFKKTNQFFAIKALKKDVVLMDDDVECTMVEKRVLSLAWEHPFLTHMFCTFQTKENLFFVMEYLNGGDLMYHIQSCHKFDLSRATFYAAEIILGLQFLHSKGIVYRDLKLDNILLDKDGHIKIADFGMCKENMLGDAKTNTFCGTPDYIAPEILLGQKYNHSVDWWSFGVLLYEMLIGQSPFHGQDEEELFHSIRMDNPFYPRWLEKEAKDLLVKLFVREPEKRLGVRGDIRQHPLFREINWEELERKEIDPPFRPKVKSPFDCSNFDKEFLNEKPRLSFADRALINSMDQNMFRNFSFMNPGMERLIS

A word on the IC50: it is the concentration that gives 50% inhibition. Regarding `C=CC(=O)N1CCC(Oc2nc(Nc3ccc(N4CCOCC4)cc3)nc3[nH]cc(-c4cncc(NC)n4)c23)CC1`, the result in assay [1], in assay [16], in assay [17] and in [18] was Active. For the same compound, the results for the Ratio IC50 in assay [2] and in assay [3] were 33 and 250, respectively. Further, the Activity in [4] is 96%; in assay [5], 95%; in assay [6] it was 95%; in [7], 92.7%; in assay [8], 89%; in [9] it was 86%. Besides, the Activity in [10] came out at 62%; in assay [11], 41.3%; in assay [12] it was 29.3%; in assay [13], 11.7%; in assay [14] it was 9%. Further, the inhibition result in assay [15] is “Active”. Also, the IC50 in assay [19] came to 74 nM.
